Laboratory results published in PMC8401933 (Molecules, 2021).

What was measured:
Assay in all cases: KINOMEscan binding
LATS2 = target: T1, LATS2 (Homo sapiens, UniProt Q9NRM7); conditions: read-out: Percent Control
T1 construct: purchased Eurofins DiscoverX KINOMEscan

EPHA3 = target: T2, EPHA3 (Homo sapiens, UniProt P29320); conditions: read-out: Percent Control
T2 construct: purchased Eurofins DiscoverX KINOMEscan

[1] = target: T3, JAK2(JH1domain-catalytic) (Homo sapiens, UniProt O60674); conditions: read-out: Percent Control
T3 construct: JAK2(JH1domain-catalytic); purchased Eurofins DiscoverX KINOMEscan

KIT = target: T4, KIT (Homo sapiens, UniProt P10721); conditions: read-out: Percent Control
T4 construct: purchased Eurofins DiscoverX KINOMEscan

FLT1 = target: T5, FLT1 (Homo sapiens, UniProt P17948); conditions: read-out: Percent Control
T5 construct: purchased Eurofins DiscoverX KINOMEscan

PIP5K2B = target: T6, PIP5K2B (Homo sapiens, UniProt P78356); conditions: read-out: Percent Control
T6 construct: purchased Eurofins DiscoverX KINOMEscan

TNK2 = target: T7, TNK2 (Homo sapiens, UniProt Q07912); conditions: read-out: Percent Control
T7 construct: purchased Eurofins DiscoverX KINOMEscan

ALK(C1156Y) = target: T8, ALK(C1156Y) (Homo sapiens, UniProt Q9UM73, C1156Y); conditions: read-out: Percent Control
T8 construct: purchased Eurofins DiscoverX KINOMEscan

PKAC-alpha = target: T9, PKAC-alpha (Homo sapiens, UniProt P17612); conditions: read-out: Percent Control
T9 construct: purchased Eurofins DiscoverX KINOMEscan

CLK4 = target: T10, CLK4 (Homo sapiens, UniProt Q9HAZ1); conditions: read-out: Percent Control
T10 construct: purchased Eurofins DiscoverX KINOMEscan

CDK2 = target: T11, CDK2 (Homo sapiens, UniProt P24941); conditions: read-out: Percent Control
T11 construct: purchased Eurofins DiscoverX KINOMEscan

CSNK1G2 = target: T12, CSNK1G2 (Homo sapiens, UniProt P78368); conditions: read-out: Percent Control
T12 construct: purchased Eurofins DiscoverX KINOMEscan

FLT3(ITD,D835V) = tested on: FLT3(ITD,D835V); set-up: species or system human; conditions: 10 μM
MKNK1 = target: T13, MKNK1 (Homo sapiens, UniProt Q9BUB5); conditions: read-out: Percent Control
T13 construct: purchased Eurofins DiscoverX KINOMEscan

MKK7 = target: T14, MKK7 (Homo sapiens, UniProt O14733); conditions: read-out: Percent Control
T14 construct: purchased Eurofins DiscoverX KINOMEscan

MRCKB = target: T15, MRCKB (Homo sapiens, UniProt Q9Y5S2); conditions: read-out: Percent Control
T15 construct: purchased Eurofins DiscoverX KINOMEscan

ROS1 = target: T16, ROS1 (Homo sapiens, UniProt P08922); conditions: read-out: Percent Control
T16 construct: purchased Eurofins DiscoverX KINOMEscan

PYK2 = target: T17, PYK2 (Homo sapiens, UniProt Q14289); conditions: read-out: Percent Control
T17 construct: purchased Eurofins DiscoverX KINOMEscan

[2] = target: T18, ABL1(F317L)-phosphorylated (Homo sapiens, UniProt P00519, F317L); conditions: read-out: Percent Control
T18 construct: purchased Eurofins DiscoverX KINOMEscan

CLK1 = target: T19, CLK1 (Homo sapiens, UniProt P49759); conditions: read-out: Percent Control
T19 construct: purchased Eurofins DiscoverX KINOMEscan

YSK4 = target: T20, YSK4 (Homo sapiens, UniProt Q56UN5); conditions: read-out: Percent Control
T20 construct: purchased Eurofins DiscoverX KINOMEscan

EIF2AK1 = target: T21, EIF2AK1 (Homo sapiens, UniProt Q9BQI3); conditions: read-out: Percent Control
T21 construct: purchased Eurofins DiscoverX KINOMEscan

ZAK = target: T22, ZAK (Homo sapiens, UniProt Q9NYL2); conditions: read-out: Percent Control
T22 construct: purchased Eurofins DiscoverX KINOMEscan

MST3 = target: T23, MST3 (Homo sapiens, UniProt Q9Y6E0); conditions: read-out: Percent Control
T23 construct: purchased Eurofins DiscoverX KINOMEscan

PRKCH = target: T24, PRKCH (Homo sapiens, UniProt P24723); conditions: read-out: Percent Control
T24 construct: purchased Eurofins DiscoverX KINOMEscan

[3] = target: T25, ABL1(E255K)-phosphorylated (Homo sapiens, UniProt P00519, E255K); conditions: read-out: Percent Control
T25 construct: purchased Eurofins DiscoverX KINOMEscan

SYK = target: T26, SYK (Homo sapiens, UniProt P43405); conditions: read-out: Percent Control
T26 construct: purchased Eurofins DiscoverX KINOMEscan

MYLK2 = target: T27, MYLK2 (Homo sapiens, UniProt Q9H1R3); conditions: read-out: Percent Control
T27 construct: purchased Eurofins DiscoverX KINOMEscan

STK16 = target: T28, STK16 (Homo sapiens, UniProt O75716); conditions: read-out: Percent Control
T28 construct: purchased Eurofins DiscoverX KINOMEscan

ROCK2 = ROCK2 (Homo sapiens, UniProt O75116); set-up: purchased Eurofins DiscoverX (KINOMEscan service); conditions: read-out: Percent Control
NIK = target: T29, NIK (Homo sapiens, UniProt Q99558); conditions: read-out: Percent Control
T29 construct: purchased Eurofins DiscoverX KINOMEscan

NEK4 = target: T30, NEK4 (Homo sapiens, UniProt P51957); conditions: read-out: Percent Control
T30 construct: purchased Eurofins DiscoverX KINOMEscan

FLT3(ITD,F691L) = tested on: FLT3(ITD,F691L); set-up: species or system human; conditions: 10 μM
DMPK = target: T31, DMPK (Homo sapiens, UniProt Q09013); conditions: read-out: Percent Control
T31 construct: purchased Eurofins DiscoverX KINOMEscan

BLK = target: T32, BLK (Homo sapiens, UniProt P51451); conditions: read-out: Percent Control
T32 construct: purchased Eurofins DiscoverX KINOMEscan

TRKC = target: T33, TRKC (Homo sapiens, UniProt Q16288); conditions: read-out: Percent Control
T33 construct: purchased Eurofins DiscoverX KINOMEscan

[4] = target: T34, RPS6KA4(Kin.Dom.2-C-terminal) (Homo sapiens, UniProt O75676); conditions: read-out: Percent Control
T34 construct: RPS6KA4(Kin.Dom.2-C-terminal); purchased Eurofins DiscoverX KINOMEscan

TGFBR1 = target: T35, TGFBR1 (Homo sapiens, UniProt P36897); conditions: read-out: Percent Control
T35 construct: purchased Eurofins DiscoverX KINOMEscan

PIK4CB = target: T36, PIK4CB (Homo sapiens, UniProt Q9UBF8); conditions: read-out: Percent Control
T36 construct: purchased Eurofins DiscoverX KINOMEscan

PAK7 = target: T37, PAK7 (Homo sapiens, UniProt Q9P286); conditions: read-out: Percent Control
T37 construct: purchased Eurofins DiscoverX KINOMEscan

DYRK1B = target: T38, DYRK1B (Homo sapiens, UniProt Q9Y463); conditions: read-out: Percent Control
T38 construct: purchased Eurofins DiscoverX KINOMEscan

MARK1 = target: T39, MARK1 (Homo sapiens, UniProt Q9P0L2); conditions: read-out: Percent Control
T39 construct: purchased Eurofins DiscoverX KINOMEscan

TYRO3 = target: T40, TYRO3 (Homo sapiens, UniProt Q06418); conditions: read-out: Percent Control
T40 construct: purchased Eurofins DiscoverX KINOMEscan

T4 sequence (P10721 26-976): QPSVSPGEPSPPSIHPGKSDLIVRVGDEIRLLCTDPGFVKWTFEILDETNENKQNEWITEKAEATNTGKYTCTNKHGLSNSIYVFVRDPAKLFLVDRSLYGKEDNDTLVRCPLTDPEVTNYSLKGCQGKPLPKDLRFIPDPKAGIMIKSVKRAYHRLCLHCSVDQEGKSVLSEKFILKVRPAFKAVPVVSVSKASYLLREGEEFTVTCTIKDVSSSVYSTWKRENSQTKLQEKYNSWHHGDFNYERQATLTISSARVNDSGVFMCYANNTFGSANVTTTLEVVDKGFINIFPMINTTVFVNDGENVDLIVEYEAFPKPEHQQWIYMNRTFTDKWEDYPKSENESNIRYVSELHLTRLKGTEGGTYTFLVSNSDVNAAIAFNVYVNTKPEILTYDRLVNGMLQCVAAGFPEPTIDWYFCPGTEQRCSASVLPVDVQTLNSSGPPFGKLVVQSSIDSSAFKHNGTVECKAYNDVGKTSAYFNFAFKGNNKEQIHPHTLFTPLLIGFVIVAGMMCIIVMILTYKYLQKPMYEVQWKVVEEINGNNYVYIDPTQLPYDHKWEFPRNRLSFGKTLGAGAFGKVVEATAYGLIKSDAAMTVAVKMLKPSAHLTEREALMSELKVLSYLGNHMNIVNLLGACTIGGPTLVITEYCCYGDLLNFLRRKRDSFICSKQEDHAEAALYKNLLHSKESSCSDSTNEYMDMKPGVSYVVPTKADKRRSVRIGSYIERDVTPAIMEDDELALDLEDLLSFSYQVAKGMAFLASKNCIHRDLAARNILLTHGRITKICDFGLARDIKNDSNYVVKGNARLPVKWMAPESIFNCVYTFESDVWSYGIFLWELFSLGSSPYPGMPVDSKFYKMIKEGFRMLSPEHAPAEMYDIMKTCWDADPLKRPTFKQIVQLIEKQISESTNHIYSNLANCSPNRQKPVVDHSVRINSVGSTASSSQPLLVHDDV
T13 sequence (Q9BUB5 whole entry): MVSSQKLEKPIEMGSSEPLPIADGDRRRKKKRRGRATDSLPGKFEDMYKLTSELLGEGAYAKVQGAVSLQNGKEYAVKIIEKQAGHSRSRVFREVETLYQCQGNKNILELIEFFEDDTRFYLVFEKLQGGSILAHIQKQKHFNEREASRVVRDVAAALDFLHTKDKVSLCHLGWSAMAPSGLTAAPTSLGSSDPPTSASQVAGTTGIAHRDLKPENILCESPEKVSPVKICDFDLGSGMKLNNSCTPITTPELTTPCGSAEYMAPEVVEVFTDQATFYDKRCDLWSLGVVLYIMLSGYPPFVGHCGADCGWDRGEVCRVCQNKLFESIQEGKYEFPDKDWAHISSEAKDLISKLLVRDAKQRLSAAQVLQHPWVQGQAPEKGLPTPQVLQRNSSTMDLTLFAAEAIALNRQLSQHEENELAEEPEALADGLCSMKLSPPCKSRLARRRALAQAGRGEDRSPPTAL
T36 sequence (Q9UBF8 whole entry): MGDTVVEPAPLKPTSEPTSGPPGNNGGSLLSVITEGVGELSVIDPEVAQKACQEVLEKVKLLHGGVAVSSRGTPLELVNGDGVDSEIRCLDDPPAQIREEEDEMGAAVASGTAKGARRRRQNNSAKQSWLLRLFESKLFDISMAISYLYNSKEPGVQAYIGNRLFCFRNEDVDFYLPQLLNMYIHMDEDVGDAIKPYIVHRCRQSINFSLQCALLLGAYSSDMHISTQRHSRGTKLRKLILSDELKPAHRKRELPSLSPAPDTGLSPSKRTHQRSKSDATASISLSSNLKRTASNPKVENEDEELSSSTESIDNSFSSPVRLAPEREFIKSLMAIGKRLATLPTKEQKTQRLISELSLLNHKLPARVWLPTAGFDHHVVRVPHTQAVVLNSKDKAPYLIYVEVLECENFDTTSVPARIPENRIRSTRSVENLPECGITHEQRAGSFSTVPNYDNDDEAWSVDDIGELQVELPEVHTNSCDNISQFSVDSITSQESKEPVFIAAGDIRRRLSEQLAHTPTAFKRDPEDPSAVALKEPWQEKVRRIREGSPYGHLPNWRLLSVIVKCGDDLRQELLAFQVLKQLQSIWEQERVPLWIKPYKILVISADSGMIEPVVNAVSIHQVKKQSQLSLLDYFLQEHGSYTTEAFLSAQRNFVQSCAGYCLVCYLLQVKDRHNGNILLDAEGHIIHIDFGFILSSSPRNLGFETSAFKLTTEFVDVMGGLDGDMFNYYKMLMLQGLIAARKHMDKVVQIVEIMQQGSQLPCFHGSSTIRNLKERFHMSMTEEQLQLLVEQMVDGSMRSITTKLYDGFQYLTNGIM
T10 sequence (Q9HAZ1 whole entry): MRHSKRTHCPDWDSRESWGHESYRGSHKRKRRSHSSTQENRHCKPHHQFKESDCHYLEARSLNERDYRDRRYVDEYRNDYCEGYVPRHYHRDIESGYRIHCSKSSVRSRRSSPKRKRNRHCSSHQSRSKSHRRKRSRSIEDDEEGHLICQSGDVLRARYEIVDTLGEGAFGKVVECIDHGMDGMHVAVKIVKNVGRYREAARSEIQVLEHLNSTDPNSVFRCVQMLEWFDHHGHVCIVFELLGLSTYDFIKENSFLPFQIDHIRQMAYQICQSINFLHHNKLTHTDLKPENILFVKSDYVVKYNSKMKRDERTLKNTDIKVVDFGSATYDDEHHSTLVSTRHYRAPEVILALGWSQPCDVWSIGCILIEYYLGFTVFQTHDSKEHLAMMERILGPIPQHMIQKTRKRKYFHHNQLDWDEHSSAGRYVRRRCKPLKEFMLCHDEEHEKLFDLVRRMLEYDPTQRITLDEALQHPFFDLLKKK
T8 sequence (Q9UM73 19-1620 C1156Y): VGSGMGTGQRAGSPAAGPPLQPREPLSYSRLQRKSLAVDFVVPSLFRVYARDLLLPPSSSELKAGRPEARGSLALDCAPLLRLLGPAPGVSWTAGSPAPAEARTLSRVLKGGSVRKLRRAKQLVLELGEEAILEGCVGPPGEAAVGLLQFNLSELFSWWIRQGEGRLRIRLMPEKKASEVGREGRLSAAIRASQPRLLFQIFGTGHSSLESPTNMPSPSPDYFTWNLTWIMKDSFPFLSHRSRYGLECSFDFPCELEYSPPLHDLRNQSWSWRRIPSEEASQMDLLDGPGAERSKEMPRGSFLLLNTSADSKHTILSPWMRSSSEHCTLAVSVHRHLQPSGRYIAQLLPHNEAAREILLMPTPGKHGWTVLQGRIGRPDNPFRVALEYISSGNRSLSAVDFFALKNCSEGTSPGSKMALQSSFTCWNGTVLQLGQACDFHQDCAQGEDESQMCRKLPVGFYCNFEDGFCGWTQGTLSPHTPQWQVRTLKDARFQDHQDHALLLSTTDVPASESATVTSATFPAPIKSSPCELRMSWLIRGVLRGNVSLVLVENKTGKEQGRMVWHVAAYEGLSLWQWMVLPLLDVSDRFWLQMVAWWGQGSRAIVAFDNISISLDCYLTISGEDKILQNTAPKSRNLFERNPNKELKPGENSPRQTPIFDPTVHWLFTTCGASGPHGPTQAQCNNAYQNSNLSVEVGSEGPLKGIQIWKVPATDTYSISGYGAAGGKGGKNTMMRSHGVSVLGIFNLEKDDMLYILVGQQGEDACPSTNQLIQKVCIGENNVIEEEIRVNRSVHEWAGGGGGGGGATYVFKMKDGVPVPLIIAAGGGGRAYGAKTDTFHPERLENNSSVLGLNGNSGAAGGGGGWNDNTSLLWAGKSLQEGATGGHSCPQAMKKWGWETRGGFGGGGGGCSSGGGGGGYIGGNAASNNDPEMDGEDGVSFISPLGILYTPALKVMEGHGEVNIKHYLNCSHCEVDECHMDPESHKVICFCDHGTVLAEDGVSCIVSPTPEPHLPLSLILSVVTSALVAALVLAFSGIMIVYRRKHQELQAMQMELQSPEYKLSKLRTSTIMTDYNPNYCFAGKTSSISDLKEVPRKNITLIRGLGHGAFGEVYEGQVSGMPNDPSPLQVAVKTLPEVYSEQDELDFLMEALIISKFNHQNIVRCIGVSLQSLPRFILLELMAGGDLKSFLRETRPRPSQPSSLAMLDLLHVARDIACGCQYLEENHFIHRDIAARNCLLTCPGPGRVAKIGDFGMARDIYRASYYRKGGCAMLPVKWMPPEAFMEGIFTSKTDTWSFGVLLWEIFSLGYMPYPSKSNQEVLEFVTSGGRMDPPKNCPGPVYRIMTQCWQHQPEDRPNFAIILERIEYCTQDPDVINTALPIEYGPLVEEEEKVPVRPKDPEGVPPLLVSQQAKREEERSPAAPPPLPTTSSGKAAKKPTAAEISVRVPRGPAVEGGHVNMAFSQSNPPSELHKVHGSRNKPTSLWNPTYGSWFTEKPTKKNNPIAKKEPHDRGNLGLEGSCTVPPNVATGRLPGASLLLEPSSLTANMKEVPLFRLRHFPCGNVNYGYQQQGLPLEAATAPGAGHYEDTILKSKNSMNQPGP
T37 sequence (Q9P286 whole entry): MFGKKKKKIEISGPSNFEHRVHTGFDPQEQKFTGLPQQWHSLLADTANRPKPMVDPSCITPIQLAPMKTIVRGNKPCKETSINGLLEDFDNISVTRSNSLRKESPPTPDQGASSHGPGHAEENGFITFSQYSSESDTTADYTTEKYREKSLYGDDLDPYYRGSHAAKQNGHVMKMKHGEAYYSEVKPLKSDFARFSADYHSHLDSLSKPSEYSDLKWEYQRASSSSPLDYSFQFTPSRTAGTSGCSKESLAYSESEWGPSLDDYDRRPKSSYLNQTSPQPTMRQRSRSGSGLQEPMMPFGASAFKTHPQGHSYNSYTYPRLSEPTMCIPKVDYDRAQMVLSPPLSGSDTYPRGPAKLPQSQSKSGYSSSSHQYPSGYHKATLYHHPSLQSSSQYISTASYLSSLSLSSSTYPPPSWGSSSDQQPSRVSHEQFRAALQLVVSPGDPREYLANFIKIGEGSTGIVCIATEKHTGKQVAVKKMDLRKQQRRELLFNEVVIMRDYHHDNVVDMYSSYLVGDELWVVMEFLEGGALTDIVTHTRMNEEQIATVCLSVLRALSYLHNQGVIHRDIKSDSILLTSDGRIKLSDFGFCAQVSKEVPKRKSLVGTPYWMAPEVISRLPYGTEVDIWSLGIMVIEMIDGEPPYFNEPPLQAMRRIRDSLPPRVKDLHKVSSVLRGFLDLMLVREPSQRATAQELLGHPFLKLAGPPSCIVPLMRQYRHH

In the case of CC(C)NC(=O)COc1cccc(-c2nc(Nc3ccc4[nH]ncc4c3)c3ccccc3n2)c1 [KD025, 2-(3-(4-((1H-indazol-5-yl)amino)quinazolin-2-yl)phenoxy)-N-isopropylacetamide], the remaining binding at 10 µM (LATS2) is reported as 48%, the remaining binding at 10 µM (EPHA3) is reported as 75% and the remaining binding at 10 µM [1] is reported as 51%. It also gave a remaining binding at 10 µM (KIT) of 79%, a remaining binding at 10 µM (FLT1) of 95% and a remaining binding at 10 µM (PIP5K2B) of 9.7%. It also gave a remaining binding at 10 µM (TNK2) of 82%, a remaining binding at 10 µM (ALK(C1156Y)) of 65% and a remaining binding at 10 µM (PKAC-alpha) of 100%. For the same compound, the remaining binding at 10 µM (CLK4) was 77%, the remaining binding at 10 µM (CDK2) was 93% and the remaining binding at 10 µM (CSNK1G2) was 60%. For the same compound, the “Percent Control” value (FLT3(ITD,D835V)) was 28%, the remaining binding at 10 µM (MKNK1) was 68% and the remaining binding at 10 µM (MKK7) was 73%. For the same compound, the remaining binding at 10 µM (MRCKB) was 1%, the remaining binding at 10 µM (ROS1) was 79% and the remaining binding at 10 µM (PYK2) was 95%. For the same compound, the remaining binding at 10 µM [2] was 98%, the remaining binding at 10 µM (CLK1) was 57% and the remaining binding at 10 µM (YSK4) was 66%. It also gave a remaining binding at 10 µM (EIF2AK1) of 77%, a remaining binding at 10 µM (ZAK) of 77% and a remaining binding at 10 µM (MST3) of 72%. For the same compound, the remaining binding at 10 µM (PRKCH) was 96%, the remaining binding at 10 µM [3] was 67% and the remaining binding at 10 µM (SYK) was 100%. The remaining binding at 10 µM (MYLK2) was 87%, the remaining binding at 10 µM (STK16) was 62% and the remaining binding at 10 µM (ROCK2) was 0.05%. For the same compound, the remaining binding at 10 µM (NIK) was 84%, the remaining binding at 10 µM (NEK4) was 87% and the “Percent Control” value (FLT3(ITD,F691L)) was 52%. It also gave a remaining binding at 10 µM (DMPK) of 97%, a remaining binding at 10 µM (BLK) of 11% and a remaining binding at 10 µM (TRKC) of 100%. The remaining binding at 10 µM [4] was 91%, the remaining binding at 10 µM (TGFBR1) was 59% and the remaining binding at 10 µM (PIK4CB) was 92%. For the same compound, the remaining binding at 10 µM (PAK7) was 100%, the remaining binding at 10 µM (DYRK1B) was 64% and the remaining binding at 10 µM (MARK1) was 100%. For the same compound, the remaining binding at 10 µM (TYRO3) was 91%.
